Test results published in patent US20230114728A1 (Venatorx Pharmaceuticals, Inc., priority 2019, published 2023).
In brackets after ≈: the same amount, converted by molar mass.

How the values were obtained:
E. coli K12 PBP3 = target: T1, E. coli K12 PBP3 (Escherichia coli, UniProt P0AD68); assay: biochemical; assay type: binding
T1 construct: made in house
Summary of the method: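 A. baumannii PBP2 (2.5 μM) and PBP3 (0.2 μM) were run in 25 mM Tris pH 8.0 buffer with Tween 20; E. coli PBP3 (1.5 μM) and N. gonorrhoeae PBP2 ([…]) in 50 mM Hepes pH 8.0 buffer.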

P. aeruginosa PAO1 = assay: Broth microdilution MIC in CAMHB; assay type: cell-based; settings: Pseudomonas aeruginosa, MHB, read-out: Minimum Inhibitory Concentration, P. aeruginosa PAO1
Experimental: To determine the ability of test compounds to inhibit the growth of bacterial strains, classic cell based broth microdilution minimum inhibitory concentration (MIC) assays were employed. MIC assays are performed according to CLSI methods except where otherwise noted (CLSI, 2018 and CLSI, 2019). The reference type strain E. coli ATCC 25922; the wild-type parent strain E. coli AG100; the hyper-permeable E. coli 901C and E. coli D22; and the E. coli AG100A strain lacking the acrAB efflux pump encoding genes were used to determine the ability of the PBP inhibitors to penetrate the outer membrane of gram-negative bacteria and inhibit bacterial growth. […] The P. aeruginosa ATCC 27853 and A. baumannii ATCC 19606, along with the hyper-permeable P. aeruginosa ATCC 35151 and an engineered efflux pump-compromised strain of P. aeruginosa (ΔmexAB-oprM) were used to determine the ability of PBP inhibitors to penetrate the outer membrane of P. aeruginosa and A. baumannii and assess antibacterial activity against these important gram-negative organisms.
Briefly, cryo-preserved bacterial cultures of challenge strains are streaked for isolation on appropriate agar medium, in this case cation-adjusted Mueller Hinton agar. Following incubation to allow growth of the colonies, plates are sealed with parafilm and stored refrigerated for up to two weeks. For preparation of assay inoculum and to ensure low variability, at least 5 colonies are picked from the agar plates with an inoculating loop and aseptically transferred to a culture tube containing 3 mL of cation-adjusted Mueller Hinton broth (CAMHB). The broth culture is grown for 3-5 hours at 37° C. with shaking at 200 rpm. Meanwhile, 2-fold serial dilutions of test compounds are conducted in a 96-well plate with a final volume of 75 μL per well at 2-fold the final desired concentration. After the dilution plates are set up the growing cultures are then diluted in a cuvette containing CAMHB and the optical density is measured at 600 nm. The inoculum is diluted such that 75 μL of this culture in CAMHB results in a starting bacterial concentration of 2-8×10^5 CFU/mL when added to the dilution plates. The plates are incubated for 16-20 hours for Enterobacteriaceae and Pseudomonas and 20-24 hours for Acinetobacter at 37° C. The MIC values are read visually as the lowest concentration well with no bacterial growth.

E. coli ATCC 25922 = assay: Broth microdilution MIC in CAMHB; assay type: cell-based; settings: Escherichia coli, ATCC25922; E. coli ATCC 25922; MHB; read-out: Minimum Inhibitory Concentration, E. coli 25922
Summary of the method: (§1)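 Lowest compound concentration with no visible growth after 16-20 h at 37 °C defines MIC. Plates of 2-fold serial dilutions in cation-adjusted Mueller Hinton broth received 2-8×10^5 CFU/mL of exponentially grown cells, per CLSI methods; panel spans reference, hyper-permeable and efflux-pump-deleted strains.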

A. baumannii ATCC 19606 = assay: Broth microdilution MIC in CAMHB; assay type: cell-based; settings: Acinetobacter baumannii, ATCC19606; MHB; read-out: Minimum Inhibitory Concentration, A. baumannii ATCC 19606
Summary of the method: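 Hyper-permeable or efflux-deficient strains serve to probe outer-membrane penetration. Growth inhibition is scored visually after 16-20 h at 37° C in CAMHB, starting from 2-8×10^5 CFU/mL.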

P. aeruginosa ATCC 35151 = assay: Broth microdilution MIC in CAMHB; assay type: cell-based; settings: Pseudomonas aeruginosa, ATCC35151; MHB; hyper-permeable strain; read-out: Minimum Inhibitory Concentration, P. aeruginosa ATCC 35151
Summary of the method: as §1

E. coli 901C = assay: Broth microdilution MIC in CAMHB; assay type: cell-based; settings: Escherichia coli; E. coli 901C (hyper-permeable); MHB; read-out: Minimum Inhibitory Concentration, E. coli 901C
Summary of the method: as §1

E. coli AG100A = assay: Broth microdilution MIC in CAMHB; assay type: cell-based; settings: Escherichia coli, read-out: Minimum Inhibitory Concentration, E. coli AG100A
Summary of the method: as §1

E. coli AG100 = assay: Broth microdilution MIC in CAMHB; assay type: cell-based; settings: Escherichia coli; E. coli AG100 (wild-type parent); MHB; read-out: Minimum Inhibitory Concentration, E. coli AG100
Summary of the method: as §1

[1] = tested on: K. pneumoniae 848844 producing SHV-11 and KPC-2; assay: Broth microdilution MIC in CAMHB; assay type: cell-based; settings: Klebsiella pneumoniae, read-out: Minimum Inhibitory Concentration, K. pneumoniae 848844
Summary of the method: as §1

[2] = tested on: K. pneumoniae UMM producing SHV-5 and KPC-2; assay: Broth microdilution MIC in CAMHB; assay type: cell-based; settings: Klebsiella pneumoniae, read-out: Minimum Inhibitory Concentration, K. pneumoniae UMM
Summary of the method: as §1

E. coli D22 = assay: Broth microdilution MIC in CAMHB; assay type: cell-based; settings: Escherichia coli; E. coli D22 (hyper-permeable); MHB; read-out: Minimum Inhibitory Concentration, E. coli D22
Summary of the method: as §1

[3] = tested on: P. aeruginosa (ΔmexAB-oprM); assay: Broth microdilution MIC in CAMHB; assay type: cell-based; settings: Pseudomonas aeruginosa, read-out: Minimum Inhibitory Concentration, P. aeruginosa ΔmexAB-OprM
Summary of the method: as §1

[4] = tested on: K. pneumoniae SI-117 producing VIM-1; assay: Broth microdilution MIC in CAMHB; assay type: cell-based; settings: Klebsiella pneumoniae, read-out: Minimum Inhibitory Concentration, K. pneumoniae SI-117
Summary of the method: as §1

P. aeruginosa PBP3 = target: T2, P. aeruginosa PBP3 (Pseudomonas aeruginosa, UniProt G3XD46); assay: Bocillin-FL fluorescence polarization competition binding assay, P. aeruginosa PBP3; settings: fluorescence polarization competition binding assay using Bocillin-FL
T2 construct: made in house
T2 sequence (G3XD46 whole entry): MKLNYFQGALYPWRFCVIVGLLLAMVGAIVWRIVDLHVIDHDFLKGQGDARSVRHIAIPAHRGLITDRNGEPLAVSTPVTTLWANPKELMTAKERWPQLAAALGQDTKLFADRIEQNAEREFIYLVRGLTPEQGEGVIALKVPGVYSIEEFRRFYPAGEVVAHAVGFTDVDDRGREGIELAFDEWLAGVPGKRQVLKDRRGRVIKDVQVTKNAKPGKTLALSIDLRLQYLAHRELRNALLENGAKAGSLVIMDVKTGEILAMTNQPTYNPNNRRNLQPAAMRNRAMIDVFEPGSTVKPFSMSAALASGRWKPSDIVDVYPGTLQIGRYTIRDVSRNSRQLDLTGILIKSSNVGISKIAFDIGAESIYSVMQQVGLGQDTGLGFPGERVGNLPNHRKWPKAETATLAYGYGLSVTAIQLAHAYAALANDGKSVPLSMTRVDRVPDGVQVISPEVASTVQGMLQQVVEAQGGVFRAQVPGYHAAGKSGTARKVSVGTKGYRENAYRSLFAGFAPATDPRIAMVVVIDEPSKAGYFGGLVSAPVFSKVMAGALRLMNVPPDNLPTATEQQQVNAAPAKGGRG
Summary of the method: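 Inhibitor competition with Bocillin-FL for P. aeruginosa PBP3 was followed by fluorescence polarization on a Cytation3 (BioTek) reader, using g-factor 0.96, 490 nm excitation and 520 nm emission. The enzyme was at 0.75 μM and the probe at 0.1 μM in Hepes/NaCl/glycerol buffer, 80 μl per well. FP was recorded immediately after probe addition for up to 60 minutes. Potency was expressed as EC50, the concentration that reduces bound probe by 50%.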

T1 sequence (P0AD68 1-577): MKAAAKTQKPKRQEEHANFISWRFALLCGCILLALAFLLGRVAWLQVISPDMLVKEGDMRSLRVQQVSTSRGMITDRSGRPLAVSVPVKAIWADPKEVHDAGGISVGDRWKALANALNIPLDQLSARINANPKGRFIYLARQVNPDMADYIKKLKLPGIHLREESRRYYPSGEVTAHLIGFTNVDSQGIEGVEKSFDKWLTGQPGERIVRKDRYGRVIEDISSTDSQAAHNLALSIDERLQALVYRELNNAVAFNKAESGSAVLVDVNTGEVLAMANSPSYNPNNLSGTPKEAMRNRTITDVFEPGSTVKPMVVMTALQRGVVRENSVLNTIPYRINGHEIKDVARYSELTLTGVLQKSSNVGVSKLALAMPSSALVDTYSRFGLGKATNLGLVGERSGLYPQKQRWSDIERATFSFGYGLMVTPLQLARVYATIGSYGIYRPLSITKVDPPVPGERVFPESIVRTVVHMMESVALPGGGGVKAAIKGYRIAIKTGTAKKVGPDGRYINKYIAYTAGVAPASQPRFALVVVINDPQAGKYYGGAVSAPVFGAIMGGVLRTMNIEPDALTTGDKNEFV

CCN1CCN(C(=O)NC(C(=O)N[C@H]2Cc3ccc(SCCN)c(C(=O)O)c3OB2O)c2csc(N)n2)C(=O)C1=O (stereo partly drawn) [Example 67, (3R)-7-((2-aminoethyl)thio)-3-(2-(2-aminothiazol-4-yl)-2-(4-ethyl-2,3-dioxopiperazine-1-carboxamido)acetamido)-2-hydroxy-3,4-dihydro-2H-benzo[e][1,2]oxaborinine-8-carboxylic acid]
EC50 (E. coli K12 PBP3): 30 to 500 µM
MIC (P. aeruginosa PAO1): > 128 µg/mL
MIC (E. coli ATCC 25922): 32 to 64 µg/mL (≈ 52.9 to 106 µM)
MIC (A. baumannii ATCC 19606): > 128 µg/mL
MIC (P. aeruginosa ATCC 35151): 0.5 to 1 µg/mL (≈ 0.826 to 1.65 µM)
MIC (E. coli 901C): 0.5 to 1 µg/mL (≈ 0.826 to 1.65 µM)
MIC (E. coli AG100A): 32 to 64 µg/mL (≈ 52.9 to 106 µM)
MIC (E. coli AG100): > 128 µg/mL
MIC [1]: > 128 µg/mL
MIC [2]: 32 to 64 µg/mL (≈ 52.9 to 106 µM)
MIC (E. coli D22): 8 to 16 µg/mL (≈ 13.2 to 26.4 µM)
MIC [3]: 32 to 64 µg/mL (≈ 52.9 to 106 µM)
MIC [4]: 32 to 64 µg/mL (≈ 52.9 to 106 µM)

CCN1CCN(C(=O)NC(C(=O)N[C@H]2Cc3ccc(SCCN4CCCC4)c(C(=O)O)c3OB2O)c2csc(N)n2)C(=O)C1=O (stereo partly drawn) [Example 64, (3R)-3-(2-(2-aminothiazol-4-yl)-2-(4-ethyl-2,3-dioxopiperazine-1-carboxamido)acetamido)-2-hydroxy-7-((2-(pyrrolidin-1-yl)ethyl)thio)-3,4-dihydro-2H-benzo[e][1,2]oxaborinine-8-carboxylic acid]
EC50 (E. coli K12 PBP3): > 500 µM
P. aeruginosa PBP3 Potency (P. aeruginosa PBP3): B (B represents a potency between 30 μM and 500 μM inclusive)
MIC (P. aeruginosa PAO1): > 128 µg/mL
MIC (E. coli ATCC 25922): > 128 µg/mL
MIC (A. baumannii ATCC 19606): > 128 µg/mL
MIC (P. aeruginosa ATCC 35151): 8 to 16 µg/mL (≈ 12.1 to 24.3 µM)
MIC (E. coli 901C): 32 to 64 µg/mL (≈ 48.5 to 97 µM)
MIC (E. coli AG100A): > 128 µg/mL
MIC (E. coli AG100): > 128 µg/mL
MIC [1]: > 128 µg/mL
MIC [2]: > 128 µg/mL
MIC (E. coli D22): > 128 µg/mL
MIC [3]: > 128 µg/mL
MIC [4]: > 128 µg/mL

CCN1CCN(C(=O)NC(C(=O)N[C@H]2Cc3ccc(C=NOCCN)c(C(=O)O)c3OB2O)c2csc(N)n2)C(=O)C1=O (stereo partly drawn) [Example 62, (3R)-7-(((2-aminoethoxy)imino)methyl)-3-(2-(2-aminothiazol-4-yl)-2-(4-ethyl-2,3-dioxopiperazine-1-carboxamido)acetamido)-2-hydroxy-3,4-dihydro-2H-benzo[e][1,2]oxaborinine-8-carboxylic acid]
EC50 (E. coli K12 PBP3): > 500 µM
P. aeruginosa PBP3 Potency (P. aeruginosa PBP3): B (B represents a potency between 30 μM and 500 μM inclusive)
MIC (P. aeruginosa PAO1): > 128 µg/mL
MIC (E. coli ATCC 25922): > 128 µg/mL
MIC (A. baumannii ATCC 19606): > 128 µg/mL
MIC (P. aeruginosa ATCC 35151): 8 to 16 µg/mL (≈ 13 to 26 µM)
MIC (E. coli 901C): 32 to 64 µg/mL (≈ 51.9 to 104 µM)
MIC (E. coli AG100A): 32 to 64 µg/mL (≈ 51.9 to 104 µM)
MIC (E. coli AG100): > 128 µg/mL
MIC [1]: > 128 µg/mL
MIC [2]: > 128 µg/mL
MIC (E. coli D22): 32 to 64 µg/mL (≈ 51.9 to 104 µM)
MIC [3]: > 128 µg/mL
MIC [4]: > 128 µg/mL
